According to ChEMBL document CHEMBL5550210, “Discovery of Novel α,β-Unsaturated Amide Derivatives as Candidate Antifungals to Overcome Fungal Resistance” (J Med Chem, 2024):
In brackets after ≈: the same amount, converted by molar mass. Activity calls are given as the source filed them. The calls are words filed in the database; no cut-off is given here.

Columns and labels:
Candida albicans [1] = experiment: Antifungal activity against fluconazole-resistant Candida albicans 904 assessed as increase in intracellular ROS production at 32 ug/ml incubated for 4 hrs by DCFH-DA probe based fluorescence spectrophotometric analysis; format: functional, organism-based; conditions: dose 32.0 µg/ml
Nakaseomyces glabratus = experiment: Antifungal activity against Candida glabrata assessed as inhibition of fungal growth by CLSI protocol based microdilution method; format: functional
Candida albicans [2] = experiment: Antifungal activity against fluconazole-resistant Candida albicans CaR assessed as inhibition of fungal growth by CLSI based microdilution method; format: functional
[3] = biological target: T1, Voltage-gated inwardly rectifying potassium channel KCNH6 (Homo sapiens, UniProt Q9H252); experiment: Inhibition of hERG2; format: toxicity
T1 sequence (Q9H252 whole entry): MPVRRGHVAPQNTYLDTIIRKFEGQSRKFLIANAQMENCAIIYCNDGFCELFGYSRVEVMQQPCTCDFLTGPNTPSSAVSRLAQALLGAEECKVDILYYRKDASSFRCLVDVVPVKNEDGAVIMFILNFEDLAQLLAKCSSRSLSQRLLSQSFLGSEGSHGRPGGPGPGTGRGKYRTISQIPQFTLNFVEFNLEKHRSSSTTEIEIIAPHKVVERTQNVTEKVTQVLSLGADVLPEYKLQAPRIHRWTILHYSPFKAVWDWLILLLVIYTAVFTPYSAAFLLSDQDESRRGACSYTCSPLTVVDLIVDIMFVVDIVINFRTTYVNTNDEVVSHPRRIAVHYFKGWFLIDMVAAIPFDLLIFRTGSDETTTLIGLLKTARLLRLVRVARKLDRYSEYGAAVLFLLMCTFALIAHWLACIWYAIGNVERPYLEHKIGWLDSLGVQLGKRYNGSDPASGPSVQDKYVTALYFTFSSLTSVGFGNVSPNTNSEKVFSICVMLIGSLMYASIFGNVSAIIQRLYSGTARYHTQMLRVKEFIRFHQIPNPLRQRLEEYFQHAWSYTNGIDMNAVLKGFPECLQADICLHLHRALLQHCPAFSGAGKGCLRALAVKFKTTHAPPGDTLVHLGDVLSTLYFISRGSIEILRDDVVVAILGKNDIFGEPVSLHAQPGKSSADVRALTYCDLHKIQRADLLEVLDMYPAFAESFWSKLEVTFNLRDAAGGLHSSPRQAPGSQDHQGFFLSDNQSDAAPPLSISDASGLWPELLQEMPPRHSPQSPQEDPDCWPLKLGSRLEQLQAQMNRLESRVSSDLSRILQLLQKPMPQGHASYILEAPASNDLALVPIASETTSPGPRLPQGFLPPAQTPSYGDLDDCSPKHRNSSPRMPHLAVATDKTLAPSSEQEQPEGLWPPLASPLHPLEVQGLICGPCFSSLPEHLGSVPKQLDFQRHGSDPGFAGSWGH

[4] = Subacute toxicity in Kunming mouse assessed as animal death at 100 mg/kg,po administrated once daily for 14 days; format: organism-based; conditions: in vivo, 336 h, time 14 day
Candida albicans [5] = experiment: Antifungal activity against Candida albicans SC5314 assessed as leakage of endogenous substances at 16 ug/ml incubated for 24 hrs by transmission electron microscopic analysis; format: functional, organism-based; conditions: dose 16.0 µg/ml
[6] = AUC (0 to infinity) in Sprague-Dawley rat at 2 mg/kg,iv by LC-MS/MS analysis; format: ADME, organism-based; conditions: in vivo
Candida albicans [7] = experiment: Antifungal activity against Candida albicans SC5314 assessed as fungal cell membrane injury at 16 ug/ml incubated for 24 hrs by transmission electron microscopic analysis; format: functional, organism-based; conditions: dose 16.0 µg/ml
[8] = Half life in Sprague-Dawley rat at 2 mg/kg,iv by LC-MS/MS analysis; format: ADME, organism-based; conditions: in vivo
[9] = Acute toxicity in Kunming female mouse assessed as liver damage at 100 mg/kg,po administrated for 7 days by hematoxylin and eosin staining based microscopic analysis; format: organism-based; conditions: in vivo, 168 h, time 7 day
[10] = Volume of distribution at steady state in Sprague-Dawley rat at 2 mg/kg,iv by LC-MS/MS analysis; format: ADME, organism-based; conditions: in vivo, read-out: Vdss
[11] = Oral bioavailability in Sprague-Dawley rat at 5 mg/kg by LC-MS/MS analysis; format: ADME, organism-based; conditions: in vivo
[12] = Acute toxicity in Kunming mouse assessed as increase in body weight at 100 mg/kg,po administrated once daily for 14 days; format: organism-based; conditions: in vivo, 336 h, time 14 day
Candida albicans [13] = experiment: Antifungal activity against fluconazole-resistant Candida albicans 904 infected ICR mouse model assessed as reduction in fungal burden in kidney at 10 to 20 mg/kg,ip administration for 5 days; format: functional, organism-based; conditions: dose 10-20 mg/kg, time 5.0 day
[14] = Clearance in Sprague-Dawley rat at 2 mg/kg,iv by LC-MS/MS analysis; format: ADME, organism-based; conditions: in vivo
[15] = MRTinfinity in Sprague-Dawley rat at 2 mg/kg,iv by LC-MS/MS analysis; format: ADME, organism-based; conditions: in vivo
[16] = Acute toxicity in Kunming mouse assessed as behavioral change at 1000 mg/kg,po administrated for 7 days; format: organism-based; conditions: in vivo, 168 h, time 7 day
[17] = Subacute toxicity in Kunming mouse assessed as behavioral change at 100 mg/kg,po administrated once daily for 14 days; format: organism-based; conditions: in vivo, 336 h, time 14 day
[18] = Acute toxicity in Kunming mouse assessed as animal death at 1000 mg/kg,po administrated for 7 days; format: organism-based; conditions: in vivo, 168 h, time 7 day
[19] = Acute toxicity in Kunming male mouse assessed as liver damage at 100 mg/kg,po administrated for 7 days by hematoxylin and eosin staining based microscopic analysis; format: organism-based; conditions: in vivo, 168 h, time 7 day
Candida albicans [20] = experiment: Fungicidal activity against fluconazole-resistant Candida albicans 904 assessed as reduction in colony forming units at 32 times MIC incubated for 24 hrs by time-kill curve assay; format: functional
Candida albicans [21] = experiment: Antifungal activity against fluconazole-resistant Candida albicans 904 infected ICR mouse model assessed as median survival time at 10 mg/kg,ip administration for 14 days; format: functional; conditions: time 14 day
[22] = MRTinfinity in Sprague-Dawley rat at 5 mg/kg,po by LC-MS/MS analysis; format: ADME, organism-based; conditions: in vivo
Candida albicans [23] = experiment: Antifungal activity against Candida albicans SC5314 infected ICR mouse model assessed as reduction in fungal burden in kidney at ip administration for 5 days; format: functional, organism-based; conditions: time 5.0 day
[24] = Tmax in Sprague-Dawley rat at 5 mg/kg,po by LC-MS/MS analysis; format: ADME, organism-based; conditions: in vivo
[25] = Acute toxicity in Kunming mouse assessed as change in body weight at 1000 mg/kg,po administrated for 7 days; format: organism-based; conditions: in vivo, 168 h, time 7 day
Candida albicans [26] = experiment: Antifungal activity against fluconazole-resistant Candida albicans 904 infected ICR mouse model assessed as median survival time at 20 mg/kg,ip administration for 14 days; format: functional; conditions: time 14 day
[27] = Acute toxicity in Kunming female mouse assessed as kidney damage at 100 mg/kg,po administrated for 7 days by hematoxylin and eosin staining based microscopic analysis; format: organism-based; conditions: in vivo, 168 h, time 7 day
[28] = AUC (0 to infinity) in Sprague-Dawley rat at 5 mg/kg,po by LC-MS/MS analysis; format: ADME, organism-based; conditions: in vivo
[29] = Acute toxicity in Kunming male mouse assessed as kidney damage at 100 mg/kg,po administrated for 7 days by hematoxylin and eosin staining based microscopic analysis; format: organism-based; conditions: in vivo, 168 h, time 7 day
[30] = Half life in Sprague-Dawley rat at 5 mg/kg,po by LC-MS/MS analysis; format: ADME, organism-based; conditions: in vivo

With O=C(/C=C/c1ccc(COC(Cn2ccnc2)c2ccc(Cl)cc2Cl)cc1)Nc1ccc(Cl)cc1Cl (stereo not given) the Activity (Candida albicans [1]) was “Active”, the MIC (Nakaseomyces glabratus) was 1 µg/mL (≈ 1.78 µM) and the MIC (Candida albicans [2]) was 1 µg/mL (≈ 1.78 µM). The “inhibition (INH)” value [3] was “Active”.

In the case of CCCCNC(=O)/C=C/c1ccc(COC(Cn2ccnc2)c2ccc(Cl)cc2Cl)cc1 (stereo not given), the Activity [4] is reported as “Non-Toxic”, the Activity (Candida albicans [5]) is reported as “Active” and the AUC(0-inf) [6] is reported as 1410 ng·h/mL. For the same compound, the Activity (Candida albicans [7]) was “Active”, the Activity (Candida albicans [1]) was “Active” and the half-life [8] was 1.72 h. For the same compound, the MIC (Nakaseomyces glabratus) was 4 µg/mL (≈ 8.47 µM), the Activity [9] was “Toxic” and the Vd [10] was 1.76 L/kg. For the same compound, the bioavailability [11] was 12.8%, the Activity [12] was “Toxic” and the Activity (Candida albicans [13]) was “Active”. The clearance [14] was 23.7 mL/min/kg, the MIC (Candida albicans [2]) was 1 µg/mL (≈ 2.12 µM) and the MRT inf [15] was 1.24 h. The Activity [16] was “Non-Toxic”, the Activity [17] was “Non-Toxic” and the Activity [18] was “Non-Toxic”. For the same compound, the Activity [19] was “Toxic”, the Activity (Candida albicans [20]) was 2 log10CFU/ml and the MST (Candida albicans [21]) was 10 days. The MRT inf [22] was 1.93 h, the Activity (Candida albicans [23]) was “Dose-Dependent Effect” and the Tmax [24] was 1 h. For the same compound, the Activity [25] was “Non-Toxic”, the MST (Candida albicans [26]) was 13.52 days and the “inhibition (INH)” value [3] was “Active”. The Activity [27] was “Non-Toxic”, the AUC(0-inf) [28] was 452 ng·h/mL and the Activity [29] was “Toxic”. The half-life [30] was 1.23 h.
